# BindingDB's records for doi:10.1021/acs.jmedchem.2c01229 (University of Siena, 2023)
# Assay: Inhibition of SARS-CoV-1 RdRp-mediated viral replication
structure (smiles),measurement,value
CN(C)CCCSc1ccccc1NC(=O)/C=C/c1ccccc1 [CINANSERIN],IC50,34 µM
